Patent US20050074879A1, “Antisense oligonucleotide modulation of STAT3 expression” (priority 2000, published 2005)
Oligonucleotides are written 5' to 3', each unit as a sugar letter and its base; * is a phosphorothioate linkage, no mark a phosphodiester; rarer units and linkages stand in square brackets, end groups in braces. Plain capitals give the bases only. e = 2'-O-(2-methoxyethyl) (MOE); [5mC] = 5-methylcytosine; d = 2'-deoxy (DNA)

Columns and labels:
Human STAT3 mRNA = experiment: Inhibition of human STAT3 mRNA expression in U266 cells, Northern blot; assay type: cell-based; settings: for % mRNA EXPRESSION / % mRNA INHIBITION: U266 cells, 2.5 μM oligonucleotide, electroporation, 24 hours; for % mRNA EXPRESSION: percent of control
Description: U266 human myeloma cell lines (originally obtained from American Type Culture Collection) were maintained in RPMI 1640 medium supplemented with 10% fetal calf serum. Cells (15×10^6 cells in PBS) were transfected with oligonucleotides at 200V with a single 6-millisecond pulse using a BTX Electro Square Porator T820 (Genetronics, San Diego Calif.). The cells were incubated for 24 hours before RNA extraction.
Total cellular RNA was isolated using the Rneasy kit (Qiagen, Santa Clarita, Calif.). Northern blotting was perfomed on 15 μg of RNA using a cDNA probe prepared from MB-MDA 468 RNA by standard RT-PCR followed by a nested primer reaction. Signals were quantitated using a Molecular Dynamics Phosphorimager.
In order to examine the importance of STAT3 expression in multiple myeloma cells, a series of 20mer STAT3 antisense oligonucleotides were designed and synthesized, using phosphorothioate chemistry and incorporating 2′-O-methoxyethyl modifications to improve hybridization affinity and nuclease resistance.

Mouse STAT3 mRNA = experiment: Inhibition of mouse STAT3 mRNA expression in BCL1 cells (electroporation; RNase protection/Northern blot); assay type: cell-based; parameters: % mRNA INHIBITION: dose or concentration left out as unconfirmed; settings: BCL1 cells electroporated with oligonucleotide, RNA collected 24 hours later; for % mRNA EXPRESSION: control 100%
Description: The B lymphoma cell line, BCL1 was obtained from ATCC (Rockville, Md.). BCL1 cells were cultured in RPMI 1640 medium.
BCL1 cells (5×10^6 cells in PBS) were transfected with oligonucleotides by electroporation, at 200V, […]. using a BTX Electro Cell Manipulator 600 (Genetronics, San Diego, Calif.). For an initial screen, BCL1 were electroporated with […] oligonucleotide and RNA collected 24 hours later. Controls without oligonucleotide were subjected to the same electroporation conditions.
Total cellular RNA was isolated using the RNEASY7 kit (Qiagen, Santa Clarita, Calif.). RNAse protection experiments were conducted using RIBOQUANT™ kits and template sets according to the manufacturer's instructions (Pharmingen, San Diego, Calif.). Northern blotting was performed as described in Chiang, M-Y. et al. (J. Biol. Chem., 1991, 266, 18162-18171), using a rat cDNA probe prepared by Xho I/Sal I restriction digest of psvsport-1 plasmid (ATCC, Rockville, Md.). mRNA levels were quantitated using a PhosphorImager (Molecular Dynamics, Sunnyvale, Calif.).

Row | Substance | % mRNA EXPRESSION (Human STAT3 mRNA) | % mRNA INHIBITION (Mouse STAT3 mRNA) | % mRNA EXPRESSION (Mouse STAT3 mRNA) | other results
1 | 113184 (antisense e[5mC]*eG*e[5mC]*e[5mC]*eT*d[5mC]*dT*dT*d[5mC]*d[5mC]*dA*dG*dT*d[5mC]*dA*eG*e[5mC]*e[5mC]*eA*eG) [compound 113184] | 104.3% |  |  | 
2 | 17155 (antisense eT*eG*eA*eA*eA*dA*dA*dG*dG*dA*dG*dG*dG*dC*dA*eG*eG*e[5mC]*eG*eG) [compound 17155] |  | 22% | 78% | 
3 | 17156 (antisense e[5mC]*eA*e[5mC]*e[5mC]*eA*dG*dG*dA*dG*dG*dC*dA*dC*dT*dT*eG*eT*e[5mC]*eT*eA) [compound 17156] |  | 60% | 40% | 
4 | 17157 (antisense eA*eA*e[5mC]*e[5mC]*eT*dC*dC*dT*dG*dG*dG*dC*dT*dT*dA*eG*eT*e[5mC]*e[5mC]*eT) [compound 17157] |  | 47% | 53% | 
5 | 113209 (antisense eA*eA*eA*eA*eG*dT*dG*d[5mC]*d[5mC]*d[5mC]*dA*dG*dA*dT*dT*eG*e[5mC]*eT*e[5mC]*eA) [compound 113209] | 71.4% |  |  | Percent inhibition of STAT3 expression (Human STAT3 mRNA; Oligo concentration 2.5 μM): 43%; Percent inhibition of STAT3 expression (Human STAT3 mRNA; Oligo concentration 5 μM): 54%; Percent inhibition of STAT3 expression (Human STAT3 mRNA; Oligo concentration 10 μM): 73%; % mRNA INHIBITION (Human STAT3 mRNA): 28.6%
6 | 17143 (antisense eG*e[5mC]*e[5mC]*eA*eG*dA*dC*dC*dC*dA*dG*dA*dA*dG*dG*eA*eG*eA*eA*eG) [compound 17143] |  | 58% | 42% | 
7 | 17146 (antisense eA*eT*e[5mC]*eA*eA*dT*dG*dA*dA*dT*dC*dT*dA*dA*dA*eG*eT*eG*e[5mC]*eG) [compound 17146] |  | 9% | 91% | 
8 | 113187 (antisense e[5mC]*e[5mC]*eG*e[5mC]*eT*d[5mC]*d[5mC]*dA*d[5mC]*d[5mC]*dA*d[5mC]*dA*dA*dA*eG*eG*e[5mC]*eA*e[5mC]) [compound 113187] | 55.9% |  |  | Percent inhibition of STAT3 expression (Human STAT3 mRNA; Oligo concentration 2.5 μM): 44%; Percent inhibition of STAT3 expression (Human STAT3 mRNA; Oligo concentration 5 μM): 56%; Percent inhibition of STAT3 expression (Human STAT3 mRNA; Oligo concentration 10 μM): 75%; % mRNA INHIBITION (Human STAT3 mRNA): 44.1%
9 | 17145 (antisense eA*eA*e[5mC]*eT*eT*dG*dG*dT*dC*dT*dT*dC*dA*dG*dG*eT*eA*e[5mC]*eG*eG) [compound 17145] |  | 11% | 89% | 
10 | 17150 (antisense eT*eA*eA*eA*eA*dA*dA*dA*dA*dA*dA*dA*dT*dC*dT*eG*eG*eA*eA*e[5mC]) [compound 17150] |  | 5% | 95% | 
11 | 17142 (antisense eA*eT*e[5mC]*eT*eG*dA*dC*dA*dC*dC*dC*dT*dG*dA*dG*eT*eA*eG*eT*eT) [compound 17142] |  | 30% | 70% | 
12 | 17138 (antisense eA*eT*eG*eT*eG*dA*dC*dT*dC*dT*dT*dT*dG*dC*dT*eG*eG*e[5mC]*eT*eG) [compound 17138] |  | 63% | 37% | 
13 | 113172 (antisense eA*e[5mC]*e[5mC]*eG*eT*dG*dT*dG*dT*d[5mC]*dA*dA*dG*d[5mC]*dT*eG*e[5mC]*eT*eG*eT) [compound 113172] | 96.1% |  |  | % mRNA INHIBITION (Human STAT3 mRNA): 3.9%
14 | 17151 (antisense eA*eA*eG*eA*eT*dA*dG*dC*dA*dG*dA*dA*dG*dT*dA*eG*eG*eA*eA*eA) [compound 17151] |  | 8% | 92% | 
15 | 17141 (antisense eG*e[5mC]*eT*e[5mC]*eT*dT*dC*dA*dT*dC*dA*dG*dT*dC*dA*eG*eT*eG*eT*e[5mC]) [compound 17141] |  | 38% | 62% | 
16 | 113175 (antisense eG*e[5mC]*eG*eG*e[5mC]*dT*dA*dT*dA*d[5mC]*dT*dG*d[5mC]*dT*dG*eG*eT*e[5mC]*eA*eA) [compound 113175] | 75.8% |  |  | % mRNA INHIBITION (Human STAT3 mRNA): 24.2%
17 | 17147 (antisense eT*e[5mC]*eA*eG*e[5mC]*dA*dC*dC*dT*dT*dC*dA*dC*dC*dG*eT*eT*eA*eT*eT) [compound 17147] |  | 30% | 70% | 
18 | 17154 (antisense e[5mC]*e[5mC]*eT*eT*eT*dG*dC*dC*dT*dC*dC*dC*dT*dT*dC*eT*eG*e[5mC]*eT*e[5mC]) [compound 17154] |  | 20% | 80% | 

Row | Substance | % mRNA EXPRESSION (Human STAT3 mRNA) | % mRNA INHIBITION (Mouse STAT3 mRNA) | % mRNA EXPRESSION (Mouse STAT3 mRNA) | other results
19 | 17144 (antisense e[5mC]*eG*e[5mC]*eT*e[5mC]*dC*dT*dT*dG*dC*dT*dG*dA*dT*dG*eA*eA*eA*e[5mC]*e[5mC]) [compound 17144] |  | 45% | 55% | 
20 | 17136 (antisense eG*eT*eT*e[5mC]*e[5mC]*dA*dC*dT*dG*dA*dG*dC*dC*dA*dT*e[5mC]*e[5mC]*eT*eG*e[5mC]) [compound 17136] |  | 25% | 75% | 
21 | 113210 (antisense eT*eA*eA*eA*eA*dG*dT*dG*d[5mC]*d[5mC]*d[5mC]*dA*dG*dA*dT*eT*eG*e[5mC]*eT*e[5mC]) [compound 113210] | 72.2% |  |  | Percent inhibition of STAT3 expression (Human STAT3 mRNA; Oligo concentration 2.5 μM): 36%; Percent inhibition of STAT3 expression (Human STAT3 mRNA; Oligo concentration 5 μM): 50%; Percent inhibition of STAT3 expression (Human STAT3 mRNA; Oligo concentration 10 μM): 76%; % mRNA INHIBITION (Human STAT3 mRNA): 27.8%
22 | 113207 (antisense eA*eT*e[5mC]*eA*e[5mC]*d[5mC]*d[5mC]*dA*d[5mC]*dA*dT*dT*d[5mC]*dA*d[5mC]*eT*e[5mC]*eA*eT*eT) [compound 113207] | 123.6% |  |  | 
23 | 17153 (antisense eA*eT*e[5mC]*eA*e[5mC]*dC*dC*dA*dC*dA*dC*dT*dC*dA*dC*eT*e[5mC]*eA*eT*eT) [compound 17153] |  | 56% | 44% | 
24 | 113173 (antisense e[5mC]*e[5mC]*eA*eT*eT*dG*dG*dG*dA*dA*dG*d[5mC]*dT*dG*dT*e[5mC]*eA*e[5mC]*eT*eG) [compound 113173] | 119% |  |  | 
25 | 113171 (e[5mC]*e[5mC]*eA*eG*eG*dA*dG*dA*dT*dT*dA*dT*dG*dA*dA*eA*e[5mC]*eA*e[5mC]*e[5mC]) [compound 113171] | 110.2% |  |  | 
26 | 113170 (eA*eG*e[5mC]*eT*eG*dA*dT*dT*d[5mC]*d[5mC]*dA*dT*dT*dG*dG*eG*e[5mC]*e[5mC]*eA*eT) [compound 113170] | 89.6% |  |  | % mRNA INHIBITION (Human STAT3 mRNA): 10.4%
27 | 17139 (antisense e[5mC]*e[5mC]*eA*eA*eG*dA*dG*dA*dT*dT*dA*dT*dG*dA*dA*eA*e[5mC]*eA*e[5mC]*e[5mC]) [compound 17139] |  | 59% | 41% | 
28 | 113178 (antisense eT*eG*eA*eT*eT*d[5mC]*dT*dT*d[5mC]*d[5mC]*d[5mC]*dA*d[5mC]*dA*dG*eG*e[5mC]*eA*e[5mC]*e[5mC]) [compound 113178] | 143.9% |  |  | 
29 | 17137 (antisense eT*eT*e[5mC]*eA*eG*dG*dT*dA*dG*dC*dG*dT*dG*dT*dG*eT*e[5mC]*e[5mC]*eA*eG) [compound 17137] |  | 25% | 75% | 
30 | 113189 (antisense eT*eT*eG*eT*eG*dT*dT*dT*dG*dT*dG*d[5mC]*d[5mC]*d[5mC]*dA*eG*eA*eA*eT*eG) [compound 113189] | 163.9% |  |  | 
31 | 17140 (antisense eG*e[5mC]*eT*e[5mC]*e[5mC]*dA*dA*dC*dA*dT*dC*dT*dG*dC*dT*eG*e[5mC]*eT*eT*e[5mC]) [compound 17140] |  | 60% | 40% | 
32 | 113211 (antisense eA*eA*eG*e[5mC]*eA*dG*dA*dT*d[5mC]*dA*d[5mC]*d[5mC]*d[5mC]*dA*d[5mC]*eA*eT*eT*e[5mC]*eA) [compound 113211] | 116.5% |  |  | 
33 | 113181 (antisense e[5mC]*e[5mC]*e[5mC]*eG*e[5mC]*d[5mC]*dA*dG*d[5mC]*dT*d[5mC]*dA*d[5mC]*dT*d[5mC]*eA*e[5mC]*eG*eA*eT) [compound 113181] | 105.4% |  |  | 
34 | 17149 (antisense eG*eG*eT*eT*eT*dC*dA*dG*dC*dT*dC*dC*dT*dC*dA*e[5mC]*eA*eT*eG*eG) [compound 17149] |  | 30% | 70% | 
35 | 17148 (antisense ACTCAAACTGCCCTCCTGCT; listed as DNA, chemistry not fully specified) [compound 17148] | 95.1% | 31% | 69% | Percent inhibition of STAT3 expression (Human STAT3 mRNA; Oligo concentration 2.5 μM): 8%; Percent inhibition of STAT3 expression (Human STAT3 mRNA; Oligo concentration 5 μM): 54%; Percent inhibition of STAT3 expression (Human STAT3 mRNA; Oligo concentration 10 μM): 60%; % mRNA INHIBITION (Human STAT3 mRNA): 4.9%
